Experimental data from patent publication US6907280B2, “Method and apparatus for objectively measuring pain, pain treatment and other related techniques” (The General Hospital Corporation, priority 1999, dated 2005).

Tests used:
[1] = test system: reward/aversion circuitry (GOb, NAc, SLEA, amygdala, VT); assay: Unblinded low-dose morphine vs saline infusion fMRI in drug-naive healthy volunteers; type: in vivo, human
Description: Error bars are included for the MRI data acquired as the 20′ time-point, the 70′ time-point, the 150′ time-point, and the 250′ time-point. Time is represented in seconds using a conversion of repetition time (TR)=6 RR intervals=6 seconds. […] (Table II)

[2] = test system: NAc brain region; settings: 4 mg/70 kg, noxious heat 46° C.
Method: The saline is administered using conventional intravenous techniques. The thermal stimulus is delivered to a subject using a Peltier based thermode. The size of the activations shown in FIG. 10A indicate the relative extent within each region. The size of the region corresponds to the amount of activation in a volume in the NAc. Thus, a relatively small size corresponds to a relatively low activation volume in the NAc while a relatively large size corresponds to a relatively large activation volume in the NAc.
The thermal pulse 794 is provided having a pulse duration typically of about thirty seconds followed by a resting period 792b having a duration typically of about thirty seconds and during which time a neutral temperature is applied to the subject. […] In one experiment, the first temperature (i.e. the neutral temperature) corresponds to a temperature typically of about 35° C. and the second temperature (i.e. the painful temperature) corresponds to a temperature typically of about 46° C. Thus, pulses 792 and 794 in FIG. 10B vary from a temperature typically of about 35° C. to a temperature typically of about 46° C. […]

[3] = test system: VT/PAG brain region; assay: fMRI of VT/PAG during intravenous naloxone infusion; type: in vivo, human; settings: naloxone 4 mg/70 kg i.v., infusion period vs preinfusion
Method: Referring to FIGS. 10E and 10F, central nervous system (CNS) activity in reward/aversive regions is shown in response to an infusion of naloxone (in a dose of 4 mg/70 kg) in a subject.
Referring now to FIG. 10E, the VT/PAG (combined left and right components in region 820) having an activation 820 in response to an infusion of naloxone in a subject. The size and shade of the region 420a indicates the extent of activation and statistical significance respectively within the region. […] In region 820, a darker shade of gray indicates a less significant activation while a region indicated by a lighter shade of gray indicates a more significant activation.
The period 822a has a duration typically of about five minutes followed by the infusion period 822b having a duration typically of about five minutes.
The response is represented by curve 828 showing preinfusion (white background) and post-infusion (stippled background) time points.
As is known, the VT/PAG is part of the reward/aversion circuitry in the brain and since infusion of naloxone elicits a corresponding decrease (as measured by percentage signal change) in the VT/PAG response, the VT/PAG is said to be negatively valenced with respect to a drug that affects pain function, and analgesic responses to pain.

[4] = test system: reward/aversion circuitry (GOb, NAc); assay: Cocaine expectancy fMRI (prior to/shortly after infusion, before pharmacological effects); type: in vivo, human; settings: right hemisphere
Description: Also, drug expectancy effects can be observed prior to the infusion of cocaine vs. saline. […] These effects result from probability assessments regarding the potential of receiving a drug reward (i.e. a previously experienced reward).

[5] = test system: reward/aversion circuitry (GOb, NAc, SLEA, amygdala, VT); assay: Double-blind cocaine vs saline infusion fMRI in cocaine addicts (Table II Cocaine (1)); settings: Outcomes, right hemisphere
[6] = test system: aCG and NAc brain regions; assay: fMRI of 41° C. stimulus in subject sensitized to heat by capsaicin (hyperalgesia, Pain 2); type: in vivo, human
Method: Referring now to FIG. 8A, an image of an anterior cingulate gyrus (aCG) having an activation 750 in response to a 41° C. thermal stimulus is shown. […] It should be appreciated of course that any thermal mechanical, chemical device can be used to produce pain. […] Referring now to FIG. 8C, an image of aNAc region 760 in response to a 41° C. thermal stimulus is shown. […] The size and color of the activations shown in FIG. 8C indicate the relative activation and statistical significance respectively within each region.

[7] = Heat/capsaicin sensitization model on the face: VAS pain ratings; type: in vivo, human; settings: 11 point VAS 0-10
Method: (§1) In one experiment, the following paradigm was used. First allodynia was induced by application of heat in the form of a heat probe as described above to portions of the face of a subject. The heat was applied at a temperature of 44° C. for time period of 5 minutes. Next, a 0.075% capsaicin cream was applied for 20 minutes in the same facial area where the heat probe had been. The capsaicin cream was modified following the method described in “A new human experimental pain model: the heat/capsaicin sensitization model,” Petersen and Rowbotham, Neuroreport. 1999; 10(7):1511-6. Allodynia was produced by the application of normally non-noxious brush and 41 ° C. stimuli to the right (R) and left (L) V2 division of the trigeminal node.
For the 5 minute thermal application, the capsaicin application and the pain induced by normally non-noxious mechanical and thermal stimuli to the right or left V2 region, the subjects rated the intensity of the pain they experienced using a conventional on-line VAS rating scheme (i.e. an 11 point visual analogue scale 0-10; where 0=no pain and 10=maximum pain). The subjects rated the 5 minute thermal application and the capsaicin application on the V2R as approximately 5 and 2.5, respectively, on the VAS rating scale. The application of the brush to the V2R region was rated as a 2.5 on the VAS scale and the brush to the V2L region (i.e. the untreated V2 region) produced no pain. Also, application of the 41° C. probe to the V2R region was rated as approximately 9 on the VAS scale while application of the 41° C. probe to the V2L region was rated as approximately 1 on the VAS scale.

[8] = test system: brainstem region spV and thalamus; assay: Heat/capsaicin sensitization model on the face: fMRI of spV and thalamus; type: in vivo, human
Method: Referring now to FIG. 13, surrogate models of sensitization are explained. Activation in the spV and thalamus following allodynia produced by a heat-capsaicin model in a healthy volunteer are, together, different than in acute pain.
as §1
Curve 1306 represents a zero baseline signal. Curve 1300 is plotted as percent signal change vs. time (seconds).
Referring now to FIG. 13A, a curve 1310 representing the response of the thalamus to a series of brush strokes of an example of pain 2 is shown. Curve 1312 represents a zero baseline signal. The brush strokes are applied during time periods designated 1314a, 1314b.

[9] = Outcomes, Morphine, right hemisphere

CN1CC[C@]23c4c5ccc(O)c4O[C@H]2[C@@H](O)C=C[C@H]3[C@H]1C5 [morphine]
Activation, Gob R [1, 9]: (X)
Activation, NAc R [1, 9]: X^3
Activation, SLEA R [1, 9]: X^2
Laterality of NAc signal changes ([1]; averaged time-course, right and left NAc, morphine vs saline): bilateral NAc changes
Valence of NAc signal ([1]; drug reward): positively valenced signal
Activation of reward regions such as the NAc ([1]; low dose morphine, healthy volunteers): activation
Subjective effect ([1]; very low doses of morphine): mild euphoria
Analgesic effect determined from NAc activation [2]: attenuates pain

C=CCN1CC[C@]23c4c5ccc(O)c4O[C@H]2C(=O)CC[C@@]3(O)[C@H]1C5 [naloxone]
VT/PAG signal change during infusion [3]: negative percent change

COC(=O)[C@H]1[C@@H](OC(=O)c2ccccc2)C[C@@H]2CC[C@H]1N2C [cocaine]
Activation, Gob R [4]: X^2
Activation, Amygdala R [5]: (X)
Activation, SLEA R [5]: (X)

COc1cc(CNC(=O)CCCC/C=C/C(C)C)ccc1O [capsaicin]
NAc signal change to thermal pulse [6]: negative percentage change
aCG signal change to thermal pulse [6]: positive percentage change
Pain intensity rating of the capsaicin application ([7]; 0.075% capsaicin cream 20 minutes on V2R): ~2.5
Pain intensity rating of 41° C. probe on treated region ([7]; 41° C. probe to V2R after heat/capsaicin): approximately 9
Pain intensity rating of brush on treated region ([7]; brush to V2R after heat/capsaicin): 2.5
Ipsilateral spV activation ([8]; 41° C. thermal probe to V2 skin treated with capsaicin): activation in the ipsilateral spV was observed
Contralateral thalamus signal change ([8]; brush induced allodynia, heat-capsaicin model, p<0.01 t-test): decrease in signal
